Each structure is given as a SMILES string. Activity calls are given as the source filed them. The calls are words filed in the database; no cut-off is given here.

Experiment [1] in a line: Inhibition of DCAF15 (2 to 600 residues)/full-length DDB1 (1 to 1140 residues)(unknown origin) incubated for 1 hr by fluorescence polarization assay. Also noted: species or system Homo sapiens. In general terms: Fluorescence polarisation rises when a labelled molecule tumbles more slowly, as on binding a larger partner.
A short description of experiment [2]: Inhibition of N-terminal His-tagged RBM39 (146 to 326 residues)/DCAF15 (2 to 600 residues)/full-length DDB1 (1 to 1140 residues)(unknown origin) incubated for 1 hr by fluorescence polarization assay. Further details: species or system Homo sapiens.
Experiment [3] has as its system HCT-116. As to the kind of experiment: Antiproliferative activity against human HCT-116 cells incubated for 4 days by CCK8 assay. The experiment is classed as functional, cell-based. Particulars: HCT-116, 96 h.
The test system of experiment [4] is HCT-116. As to the kind of experiment: Induction of RBM39 degradation in human HCT-116 cells assessed as fold change at 1 uM incubated for 24 hrs by Western blot analysis relative to control. The class given is cell-based.
The test system of experiment [5] is HCT-116. As to the kind of experiment: Induction of RBM39 degradation in human HCT-116 cells assessed as fold change at 0.1 uM incubated for 24 hrs by Western blot analysis relative to control. The class given is cell-based.
Experiment [6] deals with HCT-116. As to the kind of experiment: Induction of RBM39 degradation in human HCT-116 cells at 0.1 to 1 uM incubated for 24 hrs by Western blot analysis. The experiment is classed as cell-based. Particulars: dose 0.1-1 µM.
A short description of experiment [7]: Competitive inhibition of N-terminal His-tagged RBM39 (146 to 326 residues)/DCAF15 (2 to 600 residues)/full-length DDB1 (1 to 1140 residues)(unknown origin) incubated for 1 hr in presence of (R)-N-(3-(N-(3-Cyano-4-methyl-1H-indol-7-yl)sulfamoyl)phenyl)-2-(2-(((6-(3-(3',6'-dihydroxy-3-oxo-3H-spiro[isobenzofuran-1,9'-xanthen]-5-yl)thioureido)hexyl)amino)methyl)pyrrolidin-1-yl)-2-oxoacetamide by fluorescence polarization assay. Also noted: species or system Homo sapiens.

As a reminder, the IC50 is the point on the concentration scale where inhibition reaches its midpoint. As for `Cc1ccc(NS(=O)(=O)c2cccc(NC(=O)C(=O)N3CCC[C@@H]3CNCCCCCCNC(=S)Nc3ccc4c(c3)C(=O)OC43c4ccc(O)cc4Oc4cc(O)ccc43)c2)c2[nH]cc(C#N)c12`, the IC50 in experiment [1] is over 2000 nM; in experiment [2], 208 nM.
In turn, `COC[C@H]1CCCN1C(=O)C(=O)Nc1cccc(S(=O)(=O)Nc2ccc(C)c3c(C#N)c[nH]c23)c1` gave an IC50 in the experiment on HCT-116 [3] of 729 nM.
`Cc1ccc(NS(=O)(=O)c2cccc(NC(=O)C(=O)N3CCCC[C@H]3CO)c2)c2[nH]cc(C#N)c12` showed an IC50 with HCT-116 [3] of 70.3 nM. Besides, the figures for the fold change (FC) with HCT-116 [4] and in the experiment on HCT-116 [5] were 0.21 and 0.59, respectively. In addition, the outcome with HCT-116 [6] was Active.
Consider `Cc1ccc(NS(=O)(=O)c2cccc(NC(=O)C(=O)N3CCCC[C@@H]3CO)c2)c2[nH]cc(C#N)c12`, for which, in the experiment with HCT-116 [3], the IC50 stood at 58 nM. Also, the fold change (FC) was determined as 0.17 in the experiment with HCT-116 [4] and 0.66 in the experiment on HCT-116 [5]. Also, the outcome in the experiment with HCT-116 [6] was Active.
As for `Cc1ccc(NS(=O)(=O)c2cccc(NC(=O)C(=O)NCCCN)c2)c2[nH]cc(C#N)c12`, half-maximal inhibition in the experiment on HCT-116 [3] (IC50) was put at 1500 nM.
On the same count and under the same terms, next, `Cc1ccc(NS(=O)(=O)c2cccc(NC(=O)C(=O)NCCCCCCN)c2)c2[nH]cc(C#N)c12`: 150 nM.
In the experiment on HCT-116 [3], `Cc1ccc(NS(=O)(=O)c2cccc(NC(=O)C(=O)N3CCC[C@H]3CO)c2)c2[nH]cc(C#N)c12` yielded an IC50 of 50.3 nM. For the same compound, the fold change (FC) was 0.32 in the experiment with HCT-116 [4] and 0.49 with HCT-116 [5]. Further, in the experiment on HCT-116 [6], the result was Active.
For `Cc1ccc(NS(=O)(=O)c2cccc(NC(=O)C(=O)N3CCC[C@@H]3CN)c2)c2[nH]cc(C#N)c12` the same measures were 52.3 nM, 0.22, 0.52 and “Active”.
Take `Cc1ccc(NS(=O)(=O)c2cccc(NC(=O)C(=O)NCCCCN)c2)c2[nH]cc(C#N)c12`: inhibition with HCT-116 [3] was half-maximal at 1000 nM (IC50).
The same measure, in the same setting: to `Cc1ccc(NS(=O)(=O)c2cccc(NC(=O)C(=O)NCCCCCN(C)C)c2)c2[nH]cc(C#N)c12` belongs 398 nM; to `Cc1ccc(NS(=O)(=O)c2cccc(NC(=O)C(=O)NCCCCCCCN)c2)c2[nH]cc(C#N)c12`, 927 nM.
The compound `Cc1ccc(NS(=O)(=O)c2cccc(NC(=O)C(=O)N3CCC[C@H]3CN)c2)c2[nH]cc(C#N)c12` gave an IC50 in the experiment on HCT-116 [3] of 90.5 nM. The fold change (FC) in the experiment with HCT-116 [4] came out at 0.18; with HCT-116 [5], 0.55. Further, the outcome in the experiment on HCT-116 [6] was Active.
On to `Cc1ccc(NS(=O)(=O)c2cccc(NC(=O)C(=O)NCCCCCN)c2)c2[nH]cc(C#N)c12`, for which the IC50 in experiment [7] was 301 nM; in the experiment on HCT-116 [3], 67.8 nM. Also, the fold change (FC) is 0.3 in the experiment on HCT-116 [4] and 0.8 in the experiment with HCT-116 [5]. Also, the result in the experiment on HCT-116 [6] was Active.
Consider `Cc1ccc(NS(=O)(=O)c2cccc(NC(=O)C(=O)NCCCCCCN(C)C)c2)c2[nH]cc(C#N)c12`, for which it took 776 nM to reach half-maximal inhibition in the experiment with HCT-116 [3] (IC50).
On the same count and under the same terms, next, `Cc1ccc(NS(=O)(=O)c2cccc(NC(=O)C(=O)NCCN)c2)c2[nH]cc(C#N)c12`: 2900 nM.
The compound `COC[C@@H]1CCCN1C(=O)C(=O)Nc1cccc(S(=O)(=O)Nc2ccc(C)c3c(C#N)c[nH]c23)c1` registered an IC50 in the experiment on HCT-116 [3] of 696 nM.

The record behind these values is ChEMBL document CHEMBL6109117, “Synthesis of an RBM39 Degrader That Downregulates CEP192 and Induces Disorganized Spindle Structures” (J Med Chem, 2025).
